Reference: patent US20230165970A1, “COMPOSITIONS AND METHODS FOR THE TREATMENT OF BACTERIAL INFECTIONS” (priority 2017, published 2023)
≈ marks a conversion by molar mass, not a printed value. Read-outs that look alike come from different tables or passages of the source. *1 amine or outer side, *2 acyl side, *3 side chain or, on linkers, in order; H or OH if unused. Where a SMILES comes first, the peptide text is derived from it. Bridges are numbered along the chain shown (N, C = ends). Roman numbers before positions name the chains, in order. [ ]: non-standard residue; d: D form. X6 = C#CCOCCOCCOCCOCCCN1C[C@@H](C(=O)[*:1])[C@H](C(=O)[*:2])C1; Nle = CCCC[C@H](N)C(=O)O; Dab = NCC[C@H](N)C(=O)O; azaGly = NNC(=O)O

Columns and labels:
Ec 25922 = type: cell-based, Escherichia coli
Method in brief: (§1)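 MHA colonies → 0.85% saline, OD600 ~0.1; 2-fold serial dilutions ×8 or ×12; conjugates in RPMI B; 35° C, 16-20 h. Pa LES431 ± 50% heat-inactivated FBS.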

Ec 2469 = type: cell-based, Escherichia coli
Method in brief: as §1

E. coli 25922 = conditions: 3.0 mg/kg IP qd at T+1 hour; 72 hours after bacterial challenge; N=3
Experimental: In vivo screening of selected compounds was accomplished in an E. coli bacteremia model (N=3). Efficacy was assessed in an animal model of infection using CD-1 mice by evaluating bacteremia in immune competent mice challenged with 2× the LD95 of E. coli 25922 (dosed qd, intraperitoneally (IP) at T+1 hour, survival endpoint).
Colistin (COL) and Int-17 were dosed at 0.3 mg/kg and Int-41 was dosed at 3.0 mg/kg. Percent survival was determined 72 hours after bacterial challenge. Compounds with MICs against E. coli 25922 of less than 4 μg/ml were evaluated in the bacteremia model.
Int-115 and Int-118 were evaluated for potency in a lethal model of bacteremia. […] Test articles were dissolved in 1× PBS and injected IV at a dose volume of 10 ml/kg one hour following bacterial challenge. Animals were monitored twice daily and mortality scored over three days.
CD-1 mice were used for bacteremia, C57BL/6J mice for endotoxemia. The endpoint was survival after three days for both models.

Ec 25922 64X-1 (COL^R) = type: cell-based, Escherichia coli; conditions: media CA-MHB
Ec AR0349 (mcr-1, COL^R) = type: cell-based, Escherichia coli; conditions: media CA-MHB
Kp 43816 = type: cell-based, Klebsiella pneumoniae
Method in brief: as §1

Kp 6951 (COL^R) = type: cell-based, Klebsiella pneumoniae
Method in brief: as §1

Kp 10031 = type: cell-based, Klebsiella pneumoniae
Method in brief: as §1

Ab 8990 (COL^R) = type: cell-based, Acinetobacter baumannii
Method in brief: as §1

Ab AB5075 = type: cell-based, Acinetobacter baumannii
Method in brief: as §1

Sa RN = type: cell-based
Ab 19606 (COLhet^R) = type: cell-based, Acinetobacter baumannii; conditions: media CA-MHB
Pa 27853 = type: cell-based, Pseudomonas aeruginosa
Method in brief: as §1

Pa PAO1 = type: cell-based, Pseudomonas aeruginosa
Method in brief: as §1

Pa LES431 = type: cell-based, Pseudomonas aeruginosa
Method in brief: as §1

A. baumannii AB5075 = assay: A. baumannii lung infection model, lung CFU burden (C57Bl/6J mice); type: in vivo, Acinetobacter baumannii; conditions: 24 h time point; conjugates 50 mpk IP at t=−12 h and t=+1 h; AZM 25 mpk SC once at t=+1 h; n=5
Experimental: A. baumannii AB5075 was grown to log-phase in LB at 37° C., 200 rpm shaking. Bacteria were washed once with PBS via centrifugation at 4,000 rpm. Bacteria were adjusted to desired concentration in PBS.
Prior to infection, 8-week-old female C57BI/6J mice (Jackson Labs) were anesthetized with 100 mg/kg ketamine and 10 mg/kg xylazine. Using an otoscope, mice were infected directly into the trachea. For CFU burden studies mice were infected with 2×10^7 CFU in 30 μL PBS. At 24 h post-infection mice were sacrificed by CO2 and both lung lobes were harvested. Lungs were homogenized with 1 mm silica beads in 1 mL PBS using a MagNA Lyser (Roche). Homogenization was carried out at 6,000 rpm for 60 s and chilled on ice for 60 s in-between runs. Lung homogenate was diluted in PBS ranging from 10^−1 to 10^−8, plated on LB plates and incubated at 37° C. overnight. The next day. CFU were enumerated and surviving CFU calculated relative to weight of the lung. […] Conjugates or hIgG1 (50 mpk) were administered intraperitoneally at t=−12 h pre-infection and t=+1 h post-infection. Azithromycin (Fresenius-Kabi) was administered subcutaneously once at t=+1 h post-infection. Efficacy of ADC conjugates (50 mpk) was determined upon intratracheal infection of A. baumannii AB5075. For CFU burden studies, mice (n=5 per group) were infected with 3×10^7 bacteria, sacrificed and lung CFU burden determined at 24 h time point.

[1] = system: Ab AB58705 (COL^R) IpxD, mut. (no LPS); type: cell-based, Acinetobacter baumannii; conditions: media CA-MHB
[2] = system: Ec COL^R LPS: colistin-resistant (MCR-1) strain (AR0349); assay: Lethal mouse endotoxemia model (LD95 purified LPS IP); type: in vivo, C57BL/6J mice; conditions: (D) Endotoxemia (Ec COL^R LPS); 5 mg/kg IV, single, -1 hr; survival after three days
Experimental: Studies (B)-(D) shown in Table 22 summarizes the efficacy of compounds in lethal models of endotoxemia. In these models 6 week old C57I/6J immune competent mice (Jackson Laboratory) were challenged IP with purified lipopolysaccharide (LPS) in PBS at an LD95. For all studies, LPS was obtained from Sigma (catalog numbers in the table footnote) or were purified using a kit obtained from iNtRON Biotechnology Inc. (cat #17141). One hour prior to LPS challenge mice were dosed with test articles as indicated (Table 22). The results of these studies indicate that compounds are able to neutralize the lethal effects of LPS in a severe endotoxemia/sepsis model.
End point was survival after 3 days. Ec: E. coli 0111:B34, Sigma cat #L4130; Ab: Acinetobacter baumannii 5075; Kp: Klebsiella pneumonia 10, Sigma cat #L4268; Ng: Neisseria gonorrhoeae 19424; Ec 026:B86, Sigma cat #L2762; Pm: Proteus mirabilis, Sigma cat #SMB00704; Sm: Serratia marcescens, Sigma cat #L6016; Pa: Pseudomonas aeruginosa 10. […] Purified LPS used for all endotoxemia studies and if not denoted by a Sigma catalog number the LPS was purified in-house using an iNtRON #17141 purification kit. *Delayed death, at the time Fc only animals reached 100% mortality all Conjugate 41 mice were still alive.

C#CCOCCOCCOCCOCCCNC(=O)CN(CC(=O)N[C@@H](CCCC)C(=O)N[C@@H](CCN)C(=O)N[C@H](C(=O)N[C@@H](CCN)C(=O)N[C@H]1CCNC(=O)[C@H]([C@@H](C)O)NC(=O)[C@H](CCN)NC(=O)[C@H](CCN)NC(=O)[C@H](CC(C)C)NC(=O)[C@@H](Cc2ccccc2)NC(=O)[C@H](CCN)NC1=O)[C@H](O)CCC)C(=C)N[C@@H](CCCC)C(=O)N[C@@H](CCN)C(=O)N[C@H](C(=O)N[C@@H](CCN)C(=O)N[C@H]1CCNC(=O)[C@H]([C@@H](C)O)NC(=O)[C@H](CCN)NC(=O)[C@H](CCN)NC(=O)[C@H](CC(C)C)NC(=O)[C@@H](Cc2ccccc2)NO[C@H](CCN)NC1=O)[C@H](O)CCC [Int-41]
MIC (Ec 25922): 4 µg/mL (≈ 1.45 µM) | MIC E. coli ATCC 25922, No serum (Ec 25922): 4 µg/mL (≈ 1.45 µM) | MIC E. coli ATCC 25922, Serum (Ec 25922): 1 µg/mL (≈ 0.362 µM) | MIC (Ec 2469): 2 µg/mL (≈ 0.724 µM) | % Survival (IP, QD) (E. coli 25922): 67% | MIC (Ec 25922 64X-1 (COL^R)): 4 µg/mL (≈ 1.45 µM) | MIC (Ec AR0349 (mcr-1, COL^R)): 4 µg/mL (≈ 1.45 µM) | MIC (Kp 43816): 4 µg/mL (≈ 1.45 µM) | MIC (Kp 6951 (COL^R)): 16 µg/mL (≈ 5.79 µM) | MIC (Kp 10031): 4 µg/mL (≈ 1.45 µM) | MIC (Ab 8990 (COL^R)): 128 µg/mL (≈ 46.3 µM) | MIC (Ab AB5075): 4 µg/mL (≈ 1.45 µM) | MIC (Sa RN): >128 µg/mL | MIC (Ab 19606 (COLhet^R)): 4 µg/mL (≈ 1.45 µM) | MIC (Pa 27853): 2 µg/mL (≈ 0.724 µM) | MIC (Pa PAO1; PAO1): 2 µg/mL (≈ 0.724 µM) | MIC (Pa LES431): 2 µg/mL (≈ 0.724 µM)

CC[C@H]1OC(=O)[C@H](C)[C@@H](O[C@H]2C[C@@](C)(OC)[C@@H](O)[C@H](C)O2)[C@H](C)[C@@H](O[C@@H]2O[C@H](C)C[C@H](N(C)C)[C@H]2O)[C@](C)(O)C[C@@H](C)CN(C)[C@H](C)[C@@H](O)[C@]1(C)O [azithromycin (AZM), azithromycin, reference compound]
reduction of lung CFU burden (A. baumannii AB5075): 0.76 logs

C#CCOCCOCCOCCOCCCN1C[C@@H](C(=O)N[C@@H](CCCC)C(=O)N[C@@H](CCN)C(=O)N[C@H](C(=O)NNC(=O)N[C@H]2CCNC(=O)[C@H]([C@@H](C)O)NC(=O)[C@H](CCN)NC(=O)[C@H](CCN)NC(=O)[C@H](CC(C)C)NC(=O)[C@@H](Cc3ccccc3)NC(=O)[C@H](CCN)NC2=O)[C@@H](C)O)[C@H](C(=O)N[C@@H](CCCC)C(=O)N[C@@H](CCN)C(=O)N[C@H](C(=O)NNC(=O)N[C@H]2CCNC(=O)[C@H]([C@@H](C)O)NC(=O)[C@H](CCN)NC(=O)[C@H](CCN)NC(=O)[C@H](CC(C)C)NC(=O)[C@@H](Cc3ccccc3)NC(=O)[C@H](CCN)NC2=O)[C@@H](C)O)C1 [Int-122] (I: [Nle][Dab]T[azaGly][Dab][Dab][dF]L[Dab][Dab]T / II: [Nle][Dab]T[azaGly][Dab][Dab][dF]L[Dab][Dab]T; lactam I:5-I:C, II:5-II:C; linker I:N-II:N via X6)
MIC (Ec 25922; Ec 25922 + FBS (50%, heat-inactivated), media CA-MHB): 0.25 µg/mL | MIC (Ec 25922; Ec 25922, media CA-MHB): 2 µg/mL (≈ 0.763 µM) | MIC (Ec 2469; Ec 2469, media CA-MHB): 2 µg/mL (≈ 0.763 µM) | MIC [1]: 2 µg/mL (≈ 0.763 µM) | MIC (Ec 25922 64X-1 (COL^R)): 2 µg/mL (≈ 0.763 µM) | MIC (Ec AR0349 (mcr-1, COL^R)): 2 µg/mL (≈ 0.763 µM) | MIC (Kp 43816; Kp 43816, media CA-MHB): 2 µg/mL (≈ 0.763 µM) | MIC (Kp 6951 (COL^R); Kp 6951 (COL^R), media CA-MHB): 8 µg/mL (≈ 3.05 µM) | MIC (Kp 10031; Kp 10031, media CA-MHB): 2 µg/mL (≈ 0.763 µM) | % survival [2]: 80% | MIC (Ab 8990 (COL^R); Ab 8990 (COL^R), media CA-MHB): >128 µg/mL | MIC (Ab AB5075; Ab AB5075, media CA-MHB): 2 µg/mL (≈ 0.763 µM) | MIC (Sa RN): >128 µg/mL | MIC (Ab 19606 (COLhet^R)): 2 µg/mL (≈ 0.763 µM) | MIC (Pa 27853; Pa 27853, media CA-MHB): 4 µg/mL (≈ 1.53 µM) | MIC (Pa PAO1; Pa PAO1, media CA-MHB): 4 µg/mL (≈ 1.53 µM) | MIC (Pa LES431; Pa LES431 + FBS (50%, heat-inactivated), media CA-MHB): 8 µg/mL | MIC (Pa LES431; Pa LES431, media CA-MHB): 2 µg/mL (≈ 0.763 µM)
